Active and inactive are the calls of the source. No cut-off for these calls is given here.
Key:
[1] = target: T1, Protein S100-B (Homo sapiens) (UniProt P04271); assay: Inhibition of human S100B/humanTAMRA-p53(367-388) interaction by In situ proximity ligation assay
T1 sequence (whole entry): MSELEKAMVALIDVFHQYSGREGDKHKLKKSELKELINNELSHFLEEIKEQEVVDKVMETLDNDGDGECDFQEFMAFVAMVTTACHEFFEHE

[2] = test system: WM-115; assay: Cytotoxicity against human WM115 cells assessed as growth inhibition measured after 72 hrs by crystal violet assay; assay type: functional, cell-based; details: WM-115, 72 h
[3] = target: T2, Protein S100-B (Homo sapiens, UniProt P04271); assay: Inhibition of human S100B/human TAMRA-p53(367-388) interaction by fluorescence polarization assay
T2 sequence (P04271 whole entry): T1 sequence (whole entry)

[4] = target: T1, Protein S100-B (Homo sapiens); assay: Inhibition of human S100B/humanTAMRA-p53(367-388) interaction assessed as inhibition rate at 50 uM by fluorescence polarization assay
[5] = target: T1, Protein S100-B (Homo sapiens); assay: Inhibition of human S100B/humanTAMRA-p53(367-388) interaction assessed as inhibition rate at 93 uM by fluorescence polarization assay

## Nc1ccc(N2CCCCC2)cc1N1CCCCC1
[1]
  inhibition: Active
[2]
  IC50: 4.9 µM
[3]
  IC50: 2 µM
  Ki: < 1 µM

## CN1CCN(c2ccc(N)c(N3CCN(C)CC3)c2)CC1
[4]
  inhibition: < 50%

## Nc1cc(N2CCCCC2)ccc1N1CCCCC1
[2]
  IC50: 36.4 µM
[3]
  IC50: 31.5 µM
  Ki: 25.1 µM

## CCN(CC)c1ccc(N)c(C)c1
[2]
  IC50: 8.5 µM
[3]
  IC50: 8.4 µM
  Ki: 5 µM

## Nc1ccc(N2CCNCC2)cc1
[4]
  inhibition: < 50%

## COc1ccc(/C=N/c2ccc(O)cc2)cc1
[3]
  IC50: 36.3 µM

## N=C(N)c1ccc(OCCCCCOc2ccc(C(=N)N)cc2)cc1 [PENTAMIDINE]
[2]
  IC50: 4.8 µM
[5]
  inhibition: 14.2%
[3]
  IC50: > 100 µM

Source: ChEMBL document CHEMBL2331198, “Identification of small-molecule inhibitors of the human S100B-p53 interaction and evaluation of their activity in human melanoma cells” (Bioorg Med Chem, 2013)
